According to patent US9957271B2, “Substituted bicyclic aza-heterocycles and analogues as sirtuin modulators” (GlaxoSmithKline, LLC, priority 2012, dated 2018):
Read-outs that look alike come from different tables or passages of the source.

Biological target: T1, SIRT1 (Homo sapiens, UniProt Q96EB6)
T1 sequence (Q96EB6 1-747): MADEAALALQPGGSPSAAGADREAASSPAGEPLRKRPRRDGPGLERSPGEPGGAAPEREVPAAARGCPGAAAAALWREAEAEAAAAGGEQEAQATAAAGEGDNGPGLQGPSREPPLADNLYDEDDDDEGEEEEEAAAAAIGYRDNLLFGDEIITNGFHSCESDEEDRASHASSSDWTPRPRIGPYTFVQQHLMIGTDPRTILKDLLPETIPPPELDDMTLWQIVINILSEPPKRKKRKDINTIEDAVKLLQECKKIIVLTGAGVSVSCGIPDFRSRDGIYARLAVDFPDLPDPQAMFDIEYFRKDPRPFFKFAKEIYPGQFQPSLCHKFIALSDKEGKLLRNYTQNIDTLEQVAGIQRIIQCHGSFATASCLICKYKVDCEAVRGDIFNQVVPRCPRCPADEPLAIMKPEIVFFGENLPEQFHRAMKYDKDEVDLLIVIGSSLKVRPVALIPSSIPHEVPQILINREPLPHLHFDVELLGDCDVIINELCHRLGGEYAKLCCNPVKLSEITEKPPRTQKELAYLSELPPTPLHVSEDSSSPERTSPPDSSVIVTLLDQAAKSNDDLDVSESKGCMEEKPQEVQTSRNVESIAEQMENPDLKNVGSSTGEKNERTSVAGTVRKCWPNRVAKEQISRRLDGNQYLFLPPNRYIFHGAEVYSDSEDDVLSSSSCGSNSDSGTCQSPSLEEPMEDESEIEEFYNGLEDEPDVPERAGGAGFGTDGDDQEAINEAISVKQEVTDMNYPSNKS
Assay: TAMRA based mass spectrometry assay of SIRT1 activity
Assay type: biochemical
Conditions: for Emax: read-out: TAMRA % Fold Act
Excerpt: Mass spectrometry based assays were used to identify modulators of SIRT1 activity. The TAMRA based assay utilized a peptide having 20 amino acid residues as follows: Ac-EE-K(biotin)-[…](Ac)NleSTEG-K(5TMR)-EE-NH2 (SEQ ID NO: 1), wherein K(Ac) is an acetylated lysine residue and Nle is a norleucine. The peptide was labeled with the fluorophore 5TMR (excitation 540 nm/emission 580 nm) at the C-terminus. The sequence of the peptide substrate was based on p53 with several modifications. In addition, the methionine residue naturally present in the sequence was replaced with the norleucine because the methionine may be susceptible to oxidation during synthesis and purification. The Trp based assay utilized a peptide having an amino acid residues as follows: Ac-R-H-K-K(Ac)-W-NH2 (SEQ ID NO: 2).
The TAMRA based mass spectrometry assay was conducted as follows: 0.5 μM peptide substrate and 120 μM βNAD^+ was incubated with 10 nM SIRT1 for 25 minutes at 25° C. in a reaction buffer (50 mM Tris-acetate pH 8, 137 mM NaCl, 2.7 mM KCl, 1 mM MgCl2, 5 mM DTT, 0.05% BSA). The SIRT1 protein was obtained by cloning the SirT1 gene into a T7-promoter containing vector, which was then transformed and expressed in BL21(DE3) bacterial cells. Test compound was added at varying concentrations to this reaction mixture and the resulting reactions were monitored. After the 25 minute incubation with SIRT1, 10 μL of 10% formic acid was added to stop the reaction. The resulting reactions were sealed and frozen for later mass spec analysis. Determination of the amount of deacetylated substrate peptide formed (or, alternatively, the amount of O-acetyl-ADP-ribose (OAADPR) generated) by the sirtuin-mediated NAD-dependent deacetylation reaction allowed for the precise measurement of relative SIRT1 activity in the presence of varying concentrations of the test compound versus control reactions lacking the test compound.
A control for inhibition of sirtuin activity was conducted by adding 1 μL of 500 mM nicotinamide as a negative control at the start of the reaction (e.g., permits determination of maximum sirtuin inhibition). A control for activation of sirtuin activity was conducted using 10 nM of sirtuin protein, with 1 μL of DMSO in place of compound, to determine the amount of deacetylation of the substrate at a given time point within the linear range of the assay. This time point was the same as that used for test compounds and, within the linear range, the endpoint represents a change in velocity.
For the above assay, SIRT1 protein was expressed and purified as follows. The SirT1 gene was cloned into a T7-promoter containing vector and transformed into BL21(DE3). The protein was expressed by induction with 1 mM IPTG as an N-terminal His-tag fusion protein at 18° C. overnight and harvested at 30,000×g. Cells were lysed with lysozyme in lysis buffer (50 mM Tris-HCl, 2 mM Tris[2-carboxyethyl]phosphine (TCEP), 10 μM ZnCl2, 200 mM NaCl) and further treated with sonication for […] for complete lysis. The protein was purified over a Ni-NTA column (Amersham) and fractions containing pure protein were pooled, concentrated and run over a sizing column (Sephadex S200 26/60 global). The peak containing soluble protein was collected and run on an Ion-exchange column (MonoQ). Gradient elution (200 mM-500 mM NaCl) yielded pure protein. This protein was concentrated and dialyzed against dialysis buffer (20 mM Tris-HCl, 2 mM TCEP) overnight. The protein was aliquoted and frozen at −80° C. until further use.

[1] = concentration of test compound giving 150% activation of SIRT1, TAMRA peptide substrate
[2] = percent maximum fold activation of SIRT1, TAMRA peptide substrate
[3] = TAMRA assay, concentration giving 150% activation of SIRT1
[4] = TAMRA assay, percent maximum fold activation
[5] = TAMRA peptide substrate, concentration giving 150% activation of SIRT1
[6] = TAMRA peptide substrate, percent maximum fold activation

Compound | TAMRA EC1.5 (μM) [3] | Emax [4] [%] | TAMRA EC1.5 [5] | Emax [6] [%] | other results
O=C(Nc1cnc2ccc(-c3ccccc3C(F)(F)F)nn12)c1ccncn1 [Compound 90] |  |  |  |  | TAMRA EC1.5 (μM) [1]: A (EC1.5<1 μM); Emax [2]: ≥ 350%
O=C(Nc1cccc(N2CCOCC2)n1)c1cnc2ccc(-c3ccccc3OCC(O)CO)nn12 (stereo not drawn) [Compound 367, 6-(2-(2,3-dihydroxypropoxy)phenyl)-N-(6-morpholinopyridin-2-yl)imidazo[1,2-b]pyridazine-3-carboxamide] | A (EC1.5<1 μM) | ≥ 350 |  |  | 
O=C(Nc1cnc2ccc(-c3ccccc3C(F)(F)F)nn12)c1ccnc(CN2CCOCC2)c1 [Compound 148] |  |  |  |  | TAMRA EC1.5 (μM) [1]: C (EC1.5>25 μM); Emax [2]: < 350%
Cc1cc(C)nc(NC(=O)c2cnc3ccc(N4CC[C@@H](F)C4)nn23)c1 [Compound 491] |  |  | B (EC1.5 1-25 μM) | < 350 | 
O=C(Nc1cccc(CN2CCOCC2)n1)c1cnc2ccc(-c3cc(F)cc(F)c3)nn12 [Compound 45] |  |  |  |  | TAMRA EC1.5 (μM) [1]: B (EC1.5 1-25 μM); Emax [2]: < 350%
O=C(Nc1ccnc(N2CCC2)c1)c1cnc2ccc(-c3ccc(F)c(F)c3F)nn12 [Compound 132] |  |  |  |  | TAMRA EC1.5 (μM) [1]: C (EC1.5>25 μM); Emax [2]: < 350%
O=C(Nc1cccc(N2CCC2)n1)c1nnc2ccc(-c3ccccc3C(F)(F)F)nn12 [Compound 73, N-(6-(azetidin-1-yl)pyridin-2-yl)-6-(2-(trifluoromethyl)phenyl)-[1,2,4]-triazolo[4,3-b]pyridazine-3-carboxamide] |  |  |  |  | TAMRA EC1.5 (μM) [1]: A (EC1.5<1 μM); Emax [2]: < 350%
Cc1c(-c2ccccc2Cl)nn2c(NC(=O)c3cccc(OCC(O)CO)n3)cnc2c1C (stereo not drawn) [Compound 402] |  |  | A (EC1.5<1 μM) | ≥ 350 | 
CCOc1ccc(NC(=O)c2c(C)nc3ccc(-c4ccccc4Cl)nn23)nn1 [Compound 744] | A (EC1.5<1 μM) | < 350 |  |  | 
O=C(Nc1cccnc1)c1cnc2ccc(-c3c(F)cccc3Cl)nn12 [Compound 163] |  |  |  |  | TAMRA EC1.5 (μM) [1]: C (EC1.5>25 μM); Emax [2]: < 350%
Cc1cc(C)nc(C(=O)Nc2cnc3c(C)c(C)c(-c4ccccc4Cl)nn23)n1 [Compound 388] | A (EC1.5<1 μM) | ≥ 350 |  |  | 
Cc1nc2ccc(-c3ccccc3Cl)nn2c1NC(=O)c1cccc(N2CCOCC2)n1 [Compound 355] | A (EC1.5<1 μM) | ≥ 350 |  |  | 
Cc1cc(C)nc(NC(=O)c2cnc3ccc(-c4ccccc4OC[C@H](O)CO)nn23)c1 [Compound 792] | A (EC1.5<1 μM) | ≥ 350 |  |  | 
COc1ccc(NC(=O)c2c(C)nc3ccc(-c4cccc(C)c4)nn23)nn1 [Compound 759] | A (EC1.5<1 μM) | < 350 |  |  | 
O=C(Nc1ccnc(N2CCC2)c1)c1cnc2ccc(-c3c(F)cccc3Cl)nn12 [Compound 165] |  |  |  |  | TAMRA EC1.5 (μM) [1]: B (EC1.5 1-25 μM); Emax [2]: ≥ 350%
CCOc1ccc(NC(=O)c2c(C)nc3ccc(-c4ccccc4F)nn23)nn1 [Compound 741] | B (EC1.5 1-25 μM) | < 350 |  |  | 
Cc1nc2ccc(-c3ccccc3C(F)(F)F)nn2c1C(=O)Nc1cccc(N2CCCC2)n1 [Compound 70] |  |  |  |  | TAMRA EC1.5 (μM) [1]: A (EC1.5<1 μM); Emax [2]: ≥ 350%
O=C(Nc1nccs1)c1cnc2ccc(-c3ccccc3OC(F)(F)F)nn12 [Compound 13] |  |  |  |  | TAMRA EC1.5 (μM) [1]: A (EC1.5<1 μM); Emax [2]: ≥ 350%
Cc1c(-c2ccccc2C(F)(F)F)nn2c(NC(=O)c3cccc(OCC(O)CO)n3)cnc2c1C (stereo not drawn) [Compound 422, 6-(2,3-dihydroxypropoxy)-N-(7,8-dimethyl-6-(2-(trifluoromethyl)phenyl)imidazo[1,2-b]pyridazin-3-yl)picolinamide] |  |  | A (EC1.5<1 μM) | ≥ 350 | 
Cc1cc(C)nc(NC(=O)c2cnc3ccc(-c4ccccc4Cl)nn23)c1 [Compound 245] | A (EC1.5<1 μM) | ≥ 350 |  |  | 

More lines, main results first:

TAMRA EC1.5 (μM) [3] | Emax [4] [%] | TAMRA EC1.5 [5] | Emax [6] [%] | Compound | other results
 |  | A (EC1.5<1 μM) | ≥ 350 | Cc1nn2ccc(-c3ccccc3C(F)(F)F)nc2c1C(=O)Nc1ccccn1 [Compound 548] | 
C (EC1.5>25 μM) | < 350 |  |  | O=C(Nc1ncc(F)cc1F)c1cnn2ccc(-c3ccccc3OC(F)(F)F)nc12 [Compound 690] | 
A (EC1.5<1 μM) | ≥ 350 |  |  | Cc1cc2ncc(C(=O)Nc3ccnc(N4CCC4)c3)n2nc1-c1ccccc1C(F)(F)F [Compound 225] | 
 |  | A (EC1.5<1 μM) | ≥ 350 | O=C(Nc1ccncc1)c1cnn2ccc(-c3ccccc3OC(F)(F)F)nc12 [Compound 531] | 
 |  | A (EC1.5<1 μM) | ≥ 350 | Cc1cc(-c2ccccc2C(F)(F)F)nn2c(NC(=O)c3ccncn3)cnc12 [Compound 409] | 
 |  | A (EC1.5<1 μM) | ≥ 350 | Cc1nc(NC(=O)c2c(C)nc3c(C)cc(-c4ccccc4OC(F)(F)F)nn23)sc1C [Compound 482] | 
A (EC1.5<1 μM) | ≥ 350 |  |  | Cc1cnc(NC(=O)c2cnn3ccc(-c4ccccc4OC(F)(F)F)nc23)cn1 [Compound 623] | 
 |  | A (EC1.5<1 μM) | ≥ 350 | Cc1ccnc(NC(=O)c2cnn3ccc(-c4ccccc4C(F)(F)F)nc23)c1 [Compound 501] | 
 |  | B (EC1.5 1-25 μM) | < 350 | Cc1nc2ccc(-c3ccccc3C(F)(F)F)nn2c1NC(=O)c1cscn1 [Compound 404] | 
A (EC1.5<1 μM) | ≥ 350 |  |  | Cc1nc(NC(=O)c2cnn3ccc(-c4ccccc4OC(F)(F)F)nc23)sc1C [Compound 614] | 
 |  | A (EC1.5<1 μM) | ≥ 350 | CC1(COc2cccc(NC(=O)c3cnc4ccc(-c5ccccc5OC(F)(F)F)nn34)n2)COC1 [Compound 400] | 
A (EC1.5<1 μM) | ≥ 350 |  |  | Cc1nc2ccc(-c3ccccc3OC[C@H](O)CO)nn2c1C(=O)Nc1cnccn1 [Compound 775] | 
B (EC1.5 1-25 μM) | < 350 |  |  | Cc1cc(C)c(NC(=O)c2cnn3ccc(-c4ccccc4OC(F)(F)F)nc23)cn1 [Compound 661] | 
A (EC1.5<1 μM) | ≥ 350 |  |  | O=C(Nc1cnc2ccc(-c3ccccc3OC(F)(F)F)nn12)c1cccc(N2CCC2)n1 [Compound 322] | 
 |  | A (EC1.5<1 μM) | ≥ 350 | O=C(Nc1cccc(OC[C@@H](O)CO)n1)c1cnc2ccc(-c3ccccc3C(F)(F)F)nn12 [Compound 554] | 
A (EC1.5<1 μM) | ≥ 350 |  |  | Cc1cc(NC(=O)c2cnc3ccc(-c4ccccc4OC[C@H](O)CO)nn23)cc(C)n1 [Compound 805] | 
